Consider 19 compounds from the NIST ThermoML archive (doi:10.1016/j.tca.2015.11.010).

Molecules are shown by their SMILES. ± gives the expanded uncertainty stated by the source.

This series can be described thus: activity coefficient (dimensionless); of the first substance listed, at infinite dilution; xn = mol fraction of the nth substance listed. To be noted: 298.15 K; 238 kPa; Liquid; Chromatography; x1 = 0.

For the compound `CCCCCCC` [heptane] + CNC=O, the activity coefficient was determined as 60.5 ± 4.8.
In the case of `Cc1ccc(C(C)C)cc1` [1-(1-methylethyl)-4-methylbenzene] + CNC=O it was 22.3 ± 2.1.
For `C1CCCCCCC1` [cyclooctane] + CNC=O, the activity coefficient came out at 42.3 ± 3.3.
Then `c1ccccc1` [benzene] + CNC=O, with 4.8 ± 0.4.
Then `Fc1ccccc1` [fluorobenzene] + CNC=O, with 4 ± 0.3.
As for `Cc1ccccc1C` [1,2-dimethylbenzene] + CNC=O, the activity coefficient turned out to be 9.8 ± 1.1.
On to `Cc1ccccc1` [toluene] + CNC=O, for which the activity coefficient amounted to 7 ± 0.6.
Take `CCCCCC` [hexane] + CNC=O: the activity coefficient was 38.6 ± 7.5.
As for `C=CC1CC=CCC1` (centres undefined) [4-ethenylcyclohexene] + CNC=O, the activity coefficient was found to be 16.6 ± 1.9.
`Cc1cccc(C)c1` [1,3-dimethylbenzene] + CNC=O: the activity coefficient was 10.8 ± 0.7.
As to `Clc1ccccc1` [chlorobenzene] + CNC=O, the activity coefficient worked out at 5.2 ± 0.6.
On to `CCCCCCCCCC` [decane] + CNC=O, for which the activity coefficient was determined as 194 ± 9.1.
Then `Brc1ccccc1` [bromobenzene] + CNC=O, with 6.3 ± 0.5.
In the case of `CCCCCCCC` [octane] + CNC=O, the activity coefficient is 83.9 ± 4.5.
In the case of `CCCCCCCCC` [nonane] + CNC=O it was 122 ± 6.3.
`c1ccc2ccccc2c1` [naphthalene] + CNC=O: the activity coefficient was determined as 26.7 ± 3.7.
As for `Cc1ccc(C)cc1` [1,4-dimethylbenzene] + CNC=O, the activity coefficient was determined as 10.4 ± 0.9.
In the case of `C=CCCCCC=C` [1,7-octadiene] + CNC=O it was 23 ± 2.1; in that of `CCCCCCCCCCC` [undecane] + CNC=O, 318 ± 32.
